Experimental data as given in patent US20170143674A1, “Use of Glutaryl Histamine for the Treatment of Respiratory Tract Diseases” (LTD "VALENTA-INTELLEKT", priority 2011, published 2017).
Marks after values point to notes of the source that are not given here.

Tests used:
[1] = test system: acute bronchitis induced by endotracheal administration of lipopolysaccharide; test: acute bronchitis (bronchiolitis/pneumonia) model, endotracheal LPS; format: in vivo, Wistar rats
Text: The therapeutic effectiveness of glutaryl histamine was studied on an experimental model of acute bronchitis. The therapeutic effectiveness of glutaryl histamine was studied on an experimental model of acute bronchitis induced by endotracheal administration of lipopolysaccharide to laboratory Wistar rats through a probe. […] After administration of LPS, from 5 to 7 motions by the syringe plunger was made for better distribution of LPS in the pulmonary tract. After this manipulation, the animals were monitored for 2 hours to reveal complications after the administration.
Dexamethasone in a dose of 5 mg/kg was used a reference medicament.
Histology and morphometry. Respiratory and air pathways were studied on samples taken from the middle third (hilum of the lung) and apexes of the left lung. […] Material for the analysis of the lung histological structure in all animals was taken from the hilum and apex of the lung to study respiratory and air pathways.
The time history of changes in lungs after administration of LPS are shown in FIGS. 1, 2 and 3, wherein the changes are expressed by semi-quantitative scores (intensity of interstitial edema expressed by scores) or by a percentage ratio of the injured part of the lung.

LPS-induced tonsillitis = LPS-induced tonsillitis model (E. coli LPS into cervical lymph node); format: in vivo; settings: for Area of germinal centers of lymphoid follicles in affected lymph nodes / TP (blood total protein) / Weight difference between affected and intact lymph nodes: M ± m
Protocol: This example is aimed at evaluating the activity of glutaryl histamine on experimental model of tonsillitis. LPS-induced tonsillitis is one of the most adequate models for the study of the pathogenesis, pathomorphological changes and action of pharmacological medicaments on the course of this disease.
Tonsillitis was induced under anesthesia by administration of a solution of E. coli lipopolysaccharide (LPS) (Sigma) in normal physiological solution in a dose of 20 μg/kg, by 10 μl to the right upper lymph node (Inn. Cervicales superficiales). After administration, the lymph nodes were put under superficial neck muscles and then the skin was stitched. The wound was treated with streptocide. The animal was placed into a post-operation cage.
The tested medicament was administered once daily in a given dose strictly at the stated time for three days before the induction of tonsillitis and 10 days after. Normal saline solution was used as placebo.
Immediately after euthanasia, the animals were subjected to necropsy, the affected and intact lymph nodes were removed and weighed.
The lymph nodes derived from the half of animals from each group were being frozen after removal in a refrigerating chamber at −25° C. for 72 hours. Then the lymph nodes were lyophilized.
In a half of animals from each group (7), the affected lymph nodes were subjected to histological analysis. After euthanasia, intact and affected lymph nodes were removed from each animal. […] Sections with a thickness of 4 to 6 μm were prepared from the paraffin blocks, stained with hematoxylin and eosin to reveal typical pathological processes and study required parameters using light-optical microscope Leica DM LS (magnification 200× and 400×).
Weights of intact and affected lymph nodes were compared and the nodes also were lyophilized to evaluate an effect of the medicaments on the swelling degree and adequacy of the model of tonsillitis.
The protein-synthetic function of the liver and a systemic effect of the medicaments on organism were evaluated in total protein (TP) analysis.

[2] = test system: Staphylococcus aureus (mouse-adapted strain 10); test: animal or person; format: in vivo, mice; settings: for Mortality rate (%) / Survival rate (%): tenth day
Protocol: The tested medicament was glutaryl histamine in doses of 15, 30 and 45 mg/kg. Solutions of the tested medicament for oral administration were prepared ex tempore. Levofloxacin (in oral administration) was used as a therapeutic preparation since this substance was the most experimentally studied antibiotic approved in clinical practice many years ago.
Staphylococcus aureus (mouse-adaptedstrain 10) was used as an infectious agent. Mice were infected intravenously.
Firstly, there was determined a lethal dose (LD100) of staphylococcus to be intravenously administered to this line of mice having a certain weight. Fatal cases among mice were registered every day for ten days. The lethal dose was 3×10^8 CFU/mouse. […] For this purpose, mice were housed into cages (10 animals per cage) and infected with a lethal dose of staphylococcus. One hour after each mouse was administered orally levofloxacin in doses of 1, 2, 4, 6, 8, 10, and 12 mg/kg. A group of mice infected with a lethal dose of staphylococcus without the treatment was considered as a control group. Fatal cases among mice were registered every day for ten days.
The next step of the experiment was to study an effect of combined administration of glutaryl histamine and levofloxacin on a model of staphylococcal sepsis in mice.
In the experiment, mice were housed in following groups (10 animals per cage):
Glutaryl histamine was administered orally in the corresponding doses to the mice of groups 3, 4, 5, 6, 7, and 8 for 5 days. Five day after, all groups of mice were intravenously administered with 0.2 ml of Staphylococcus aureus in the lethal dose. […] After infection and administration of levofloxacin, glutaryl histamine was administered to mice of groups 3-8 for additional 5 days. During the experiment, the animals were observed every day, and fatal cases were registered (see Table 13).

Compound: O=C(O)CCCC(=O)NCCc1c[nH]cn1 [glutaryl histamine]
- Peribronchial infiltration and interstitial edema (lung sections) ([1]; 27 mg/kg, 24 hours after administration of LPS): Reduction
- Peri- and intrabronchial infiltration and interstitial edema (lung sections) ([1]; 27 mg/kg, 72 hours after administration of LPS): Reduction
- interstitial edema ([1]; 27 mg/kg, first and third days, compared with the control group): reduction
- alveolar infiltration ([1]; 27 mg/kg, starting from the second day up to the third day): significant reduction
- Hemorrhagic symptoms in lungs ([1]; all time points, each tested dose): significantly weaker compared to the control group and the group of dexamethasone
- Mortality rate (%) (LPS-induced tonsillitis; Glutaryl histamine 9 mg/kg): 0%
- The number of died animals/initial number of animals in a group (LPS-induced tonsillitis; Glutaryl histamine 9 mg/kg): 0/14
- Area of germinal centers of lymphoid follicles in affected lymph nodes (LPS-induced tonsillitis; Glutaryl histamine 9 mg/kg): 0.067 ± 0.006* mm^2
- TP (blood total protein) (LPS-induced tonsillitis; Glutaryl histamine 9 mg/kg): 67.2 ± 1.1 g/L
- Weight difference between affected and intact lymph nodes (LPS-induced tonsillitis; Glutaryl histamine 9 mg/kg): 13.0 ± 1.3 mg
- Mortality rate (%) (LPS-induced tonsillitis; Glutaryl histamine 27 mg/kg): 0%
- The number of died animals/initial number of animals in a group (LPS-induced tonsillitis; Glutaryl histamine 27 mg/kg): 0/14
- Area of germinal centers of lymphoid follicles in affected lymph nodes (LPS-induced tonsillitis; Glutaryl histamine 27 mg/kg): 0.048 ± 0.003** mm^2
- TP (blood total protein) (LPS-induced tonsillitis; Glutaryl histamine 27 mg/kg): 65.0 ± 0.6* ** g/l
- Weight difference between affected and intact lymph nodes (LPS-induced tonsillitis; Glutaryl histamine 27 mg/kg): 8.8 ± 1.1* ** mg
- Area of germinal centers of lymphoid follicles in affected lymph nodes (LPS-induced tonsillitis; Glutaryl histamine 45 mg/kg): 0.066 ± 0.007* mm^2
- TP (blood total protein) (LPS-induced tonsillitis; Glutaryl histamine 45 mg/kg): 65.1 ± 0.8* ** g/l
- died/survived animals ([2]; day 1, glutaryl histamine 15 mg/kg): 0/10
- died/survived animals ([2]; day 1, glutaryl histamine 30 mg/kg): 0/10
- died/survived animals ([2]; day 1, glutaryl histamine 45 mg/kg): 0/10
- died/survived animals ([2]; day 2, glutaryl histamine 15 mg/kg): 0/10
- died/survived animals ([2]; day 2, glutaryl histamine 30 mg/kg): 0/10
- died/survived animals ([2]; day 2, glutaryl histamine 45 mg/kg): 0/10
- died/survived animals ([2]; day 3, glutaryl histamine 15 mg/kg): 0/10
- died/survived animals ([2]; day 3, glutaryl histamine 30 mg/kg): 0/10
- died/survived animals ([2]; day 3, glutaryl histamine 45 mg/kg): 1/9
- died/survived animals ([2]; day 4, glutaryl histamine 15 mg/kg): 1/9
- died/survived animals ([2]; day 4, glutaryl histamine 30 mg/kg): 1/9
- died/survived animals ([2]; day 4, glutaryl histamine 45 mg/kg): 2/8
- died/survived animals ([2]; day 5, glutaryl histamine 15 mg/kg): 2/8
- died/survived animals ([2]; day 5, glutaryl histamine 30 mg/kg): 3/7
- died/survived animals ([2]; day 5, glutaryl histamine 45 mg/kg): 4/6
- died/survived animals ([2]; day 6, glutaryl histamine 15 mg/kg): 3/7
- died/survived animals ([2]; day 6, glutaryl histamine 30 mg/kg): 4/6
- died/survived animals ([2]; day 6, glutaryl histamine 45 mg/kg): 5/5
- died/survived animals ([2]; day 7, glutaryl histamine 15 mg/kg): 4/6
- died/survived animals ([2]; day 7, glutaryl histamine 30 mg/kg): 6/4
- died/survived animals ([2]; day 7, glutaryl histamine 45 mg/kg): 7/3
- died/survived animals ([2]; day 8, glutaryl histamine 15 mg/kg): 6/4
- died/survived animals ([2]; day 8, glutaryl histamine 30 mg/kg): 7/3
- died/survived animals ([2]; day 8, glutaryl histamine 45 mg/kg): 8/2
- died/survived animals ([2]; day 9, glutaryl histamine 15 mg/kg): 7/3
- died/survived animals ([2]; day 9, glutaryl histamine 30 mg/kg): 7/3
- died/survived animals ([2]; day 9, glutaryl histamine 45 mg/kg): 8/2
- died/survived animals ([2]; day 10, glutaryl histamine 15 mg/kg): 8/2
- died/survived animals ([2]; day 10, glutaryl histamine 30 mg/kg): 7/3
- died/survived animals ([2]; day 10, glutaryl histamine 45 mg/kg): 8/2
- Mortality rate (%) ([2]; glutaryl histamine 15 mg/kg): 80%
- Survival rate (%) ([2]; glutaryl histamine 15 mg/kg): 20%
- Mortality rate (%) ([2]; glutaryl histamine 30 mg/kg): 70%
- Survival rate (%) ([2]; glutaryl histamine 30 mg/kg): 30%
- Mortality rate (%) ([2]; glutaryl histamine 45 mg/kg): 80%
- Survival rate (%) ([2]; glutaryl histamine 45 mg/kg): 20%
